Holding throughout (experiment): NCI-60 cell line screen, 48 h
Assay [1] relates to MDA-MB-435.
Assay [2] concerns SF-539.
Assay [3] deals with HCC 2998.
Assay [4] has as its system RXF 393.
The test system of assay [5] is COLO 205.
In assay [6] the test system is LOX IMVI.
Assay [7] deals with OVCAR-5.
In assay [8] the test system is SF-268.
The subject of assay [9] is OVCAR-3.
Assay [10] relates to CAKI-1.
Assay [11] concerns SK-OV-3.
Assay [12] deals with SW-620.
The test system of assay [13] is UACC-257.
Assay [14] relates to MDA-N.
The test system of assay [15] is SN12C.
Assay [16] deals with SK-MEL-28.
For assay [17], the system named is MCF7.
The subject of assay [18] is HOP-62.
For assay [19], the system named is 786-0.

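Exposure lasted 48 hours, with cells grown in 96-well plates and compounds tested at five concentrations. GI50 is the concentration that inhibits growth by half.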 Calls of active or inactive are those of the source. Cut-off read from the data, not from the text of the source: active = GI50 up to about 1.1 µM and inactive = higher. Bounds are passed on as bounds.

For the compound `CC(=O)c1ccc(Oc2c3ccccc3nc3ccccc23)cc1`, the GI50 in assay [1] was 3.27 µM (inactive); in assay [2], 2.3 µM (inactive); in assay [3], 9.48 µM (inactive); in assay [4] it was 7.91 µM (inactive); in assay [5], 2.79 µM (inactive); in assay [6] it was 5.86 µM (inactive). Also, the GI50 was 9.68 µM (inactive) in assay [7]; 5.18 µM (inactive) in assay [8]; 7.53 µM (inactive) in assay [9]; 4.69 µM (inactive) in assay [10]; 15.7 µM (inactive) in [11]; 4.33 µM (inactive) in [12]. Moreover, the GI50 in assay [13] is 5.68 µM (inactive); in assay [14] it was 4.27 µM (inactive); in [15], 5.08 µM (inactive); in assay [16], 14.7 µM (inactive); in [17], 3.22 µM (inactive); in assay [18], 14.4 µM (inactive). Further, the GI50 in [19] was 3.4 µM (inactive).

`CCOC(=O)COC1=Nc2cc(OC)c(OC)c3nc(Cl)cc(c23)C1=O`: the GI50 in [1] is 1.4 µM (inactive); in [2] it was 1.92 µM (inactive); in [3], 5.5 µM (inactive); in assay [4], 1.75 µM (inactive); in assay [5] it was 1.92 µM (inactive); in [6], 1.98 µM (inactive). For the same compound, the GI50 is 1.94 µM (inactive) in assay [7]; 2.37 µM (inactive) in assay [8]; 1.75 µM (inactive) in [9]; 1.96 µM (inactive) in [10]; 10.1 µM (inactive) in assay [11]; 2.16 µM (inactive) in assay [12]. For the same compound, the GI50 in [13] is 1.75 µM (inactive); in assay [14], 1.18 µM (inactive); in [15], 1.8 µM (inactive); in [16] it was 1.99 µM (inactive); in [17] it was 1.7 µM (inactive); in assay [18], 3.07 µM (inactive). Further, the GI50 in [19] is 1.62 µM (inactive).

As to `CCN1C(=O)C(=C/C=C/c2ccc([N+](=O)[O-])cc2)C(=O)N(CC)C1=S`, the GI50 was 23.4 µM (inactive) in assay [1]; 21.2 µM (inactive) in assay [2]; 43.4 µM (inactive) in assay [3]; 17 µM (inactive) in assay [4]; 35.1 µM (inactive) in assay [5]; 18.3 µM (inactive) in [6]. The GI50 in [7] was > 100 µM (inactive); in [8], 19.3 µM (inactive); in assay [9], 17.8 µM (inactive); in assay [10], 26.4 µM (inactive); in assay [11], > 100 µM (inactive); in assay [12], 19.1 µM (inactive). For the same compound, the GI50 in assay [13] is 17.6 µM (inactive); in assay [14], 24.4 µM (inactive); in assay [15], 21.5 µM (inactive); in [16], 18 µM (inactive); in assay [17], 23.6 µM (inactive); in [18] it was 19.1 µM (inactive). Moreover, the GI50 in assay [19] was 18.6 µM (inactive).

As for `c1ccc2c(c1)cc1n2CCc2c-1[nH]c1ccccc21`, the GI50 in assay [1], in assay [2], in assay [3], in [4], in assay [5] and in assay [6] was > 10 µM (inactive) throughout. For the same compound, the GI50 in assay [7], in assay [8], in [9], in assay [10], in assay [11] and in [12] was > 10 µM (inactive) in each case. The GI50 in assay [13], in assay [14], in [15], in [16], in assay [17] and in assay [18] was > 10 µM (inactive) each time. Besides, in assay [19], the GI50 is > 10 µM (inactive).

On to `O=C(NC1(C(=O)O)CC1c1ccccc1)c1ccccc1` (stereo not given), for which the GI50 in assay [1], in [2], in [3], in assay [4], in [5] and in assay [6] was > 100 µM (inactive) throughout. Further, the GI50 in assay [7], in assay [8], in [9], in assay [10], in assay [11] and in assay [12] was > 100 µM (inactive) each time. Besides, the GI50 in assay [13], in [14], in [15], in [16], in assay [17] and in assay [18] was > 100 µM (inactive) throughout. For the same compound, the GI50 in [19] was > 100 µM (inactive).

For the compound `COC(O)C12OC3CO[Si](C(C)C)(C(C)C)O[Si](C(C)C)(C(C)C)OC3C1Oc1nc(=O)ccn12` (stereo not given), the GI50 in assay [1] was 12.3 µM (inactive); in assay [2], 15.7 µM (inactive); in [3], 3.94 µM (inactive); in [4], 11.9 µM (inactive); in [5], 12.7 µM (inactive); in assay [6] it was 12.7 µM (inactive). The GI50 in assay [7] is 15.7 µM (inactive); in assay [8], 9.91 µM (inactive); in assay [9], 11.3 µM (inactive); in [10], 18.2 µM (inactive); in assay [11], 17.7 µM (inactive); in assay [12], > 36.8 µM (inactive). Besides, the GI50 was 11.8 µM (inactive) in assay [13]; 12.8 µM (inactive) in assay [14]; 13.3 µM (inactive) in assay [15]; > 100 µM (inactive) in [16]; 10.5 µM (inactive) in [17]; 13.7 µM (inactive) in assay [18]. In [19], the GI50 was 15.2 µM (inactive).

On to `CC1=CC(C)C/C=C/C2C3OC3(C)C(C)C3C(Cc4c[nH]c5ccccc45)NC(=O)C23C(=O)C=CC(=O)C1O` (stereo not given), for which the GI50 was 17.9 µM (inactive) in assay [1]; 6.97 µM (inactive) in assay [2]; 2.6 µM (inactive) in assay [3]; 1.38 µM (inactive) in [4]; 0.354 µM (active) in assay [5]; 2.88 µM (inactive) in assay [6]. Further, the GI50 in assay [7] is 12.5 µM (inactive); in assay [8] it was 15.1 µM (inactive); in assay [9], 5.26 µM (inactive); in assay [10], 0.885 µM (active); in assay [11] it was 12.4 µM (inactive); in assay [12], 2.02 µM (inactive). Besides, the GI50 in assay [13] was 6.27 µM (inactive); in assay [14], 5.53 µM (inactive); in [15], 8.77 µM (inactive); in assay [16], 14.7 µM (inactive); in assay [17], 5.78 µM (inactive); in assay [18], 6.79 µM (inactive). Besides, the GI50 in assay [19] was 3.25 µM (inactive).

On to `O=C1c2cccc3cccc(c23)C(=O)N1CCCNCCCCNCCCN1C(=O)c2cccc3cccc(c23)C1=O`, for which the GI50 is 0.159 µM (active) in assay [1]; 0.0843 µM (active) in assay [2]; 0.0755 µM (active) in assay [3]; 0.0933 µM (active) in [4]; 0.192 µM (active) in [5]; 0.0229 µM (active) in assay [6]. Also, the GI50 is 0.316 µM (active) in [7]; 0.025 µM (active) in assay [8]; 0.2 µM (active) in assay [9]; 0.857 µM (active) in assay [10]; 0.982 µM (active) in [11]; 0.0612 µM (active) in [12]. Further, the GI50 was 0.61 µM (active) in assay [13]; 0.256 µM (active) in assay [14]; 0.104 µM (active) in assay [15]; 0.238 µM (active) in [16]; < 0.0138 µM (active) in [17]; 0.205 µM (active) in assay [18]. The GI50 in [19] was 0.0311 µM (active).

Regarding `CC1(C)CC(=O)c2c([nH]c(=S)c(C#N)c2-c2ccc(Br)cc2)C1`, the GI50 was 51.5 µM (inactive) in assay [1]; 67.5 µM (inactive) in [2]; 35.8 µM (inactive) in assay [3]; 33.7 µM (inactive) in assay [4]; > 10 µM (inactive) in [5]; 57.5 µM (inactive) in [6]. Further, the GI50 in assay [7] is > 100 µM (inactive); in [8], 55.2 µM (inactive); in assay [9], 30.7 µM (inactive); in [10], 20 µM (inactive); in assay [11], > 100 µM (inactive); in assay [12] it was 46.9 µM (inactive). Besides, the GI50 in assay [13] is 52.2 µM (inactive); in assay [14], 70.5 µM (inactive); in assay [15], 48.9 µM (inactive); in assay [16], 44.1 µM (inactive); in assay [17] it was 40.7 µM (inactive); in assay [18], 41.7 µM (inactive). Besides, in assay [19], the GI50 is 78.5 µM (inactive).

Regarding `COc1ccc(/C=C/C(=O)N[C@@H]2C(=O)N3[C@@H]2SC(C)(C)[C@@H]3C(=O)O)cc1OC`, the GI50 in [1], in assay [2], in assay [3], in assay [4], in assay [5] and in assay [6] was > 100 µM (inactive) each time. Besides, the GI50 in [7], in assay [8], in assay [9], in [10], in [11] and in assay [12] was > 100 µM (inactive) each time. Further, the GI50 in [13], in [14], in assay [15], in [16], in [17] and in [18] was > 100 µM (inactive) in each case. Also, the GI50 in [19] is > 100 µM (inactive).

For the origin of these results see ChEMBL document CHEMBL1201862, “PubChem BioAssay data set” (2004).
